Assay results: publication PMC10669656, “ADMET and Solubility Analysis of New 5-Nitroisatine-Based Inhibitors of CDK2 Enzymes” (Biomedicines, 2023)
In brackets after ≈: the same amount, converted by molar mass. Several values for one entry are separate records, joined by “and”; a condition that tells them apart may be missing. Equal entries are not always repeated.

Experiments:
Type in all cases: physicochemical
[1] = Solubility in neat solvents, shake-flask with spectrophotometric determination; conditions: for solubility at 24 h: 25 °C, organic solvent or mixture, thermodynamic from solid
Description: (§1) The calibration curves for each derivative were obtained using successful dilutions of initial stock solutions followed by spectrophotometric measurements of the obtained solutions with decreasing concentration. The concentration ranges for the derivatives 1, 2, and 3 were 0.0081–0.0405 mg/mL, 0.0077–0.0385 mg/mL, and 0.0068–0.017 mg/mL, respectively. Methanol was used both as a solvent, as well as a reference for spectrophotometric measurements. […] The A360 spectrophotometer from AOE Instruments was used for the preparation of the calibration curves. […] Three calibration curves were prepared for each derivative and then averaged.
(§2) A multi-step procedure was employed in order to find the solubility of the studied derivatives in the selected solvents. First of all, the excess amount of the considered compound was added to test tubes containing either neat solvents or their mixtures with water in different proportions, thus forming binary solvents. Saturated solutions were obtained in this way, placed in a Shaker Incubator ES-20/60 from Biosan, and incubated for 24 h at 298.1 K. The temperature adjustment was possible with a 0.1-degree accuracy, and the variance within a 24 h cycle was 0.5 degrees. The samples were simultaneously mixed at 60 rev/min. After incubation, the samples were filtered with the help of plastic syringes equipped with PTFE filters with 0.22 µm pore size. The obtained filtrates were diluted with methanol in another set of test tubes. In order to determine the mole fractions of a solute in the solution, 1 mL of the filtered samples was weighed in 10 mL volumetric flasks using a RADWAG AS 110 R2.PLUS analytical balance. The samples diluted with methanol were measured spectrophotometrically using the same instrument as was used in the case of calibration curves. The spectra were recorded in the wavelength range of 190–500 nm, and the resolution was 1 nm. Methanol was used if further dilution of the sample was required, and it was also used as a reference for calibrating the spectrophotometer. The absorbance values at 315 nm, 321 nm, and 321 nm were taken into account for derivatives 1, 2, and 3, respectively. Based on the calibration curves, the concentration of the solute in the samples was determined together with its mole fraction. Three separate measurements were conducted, and the final values are the results of averaging them.

[2] = Solubility in DMSO-water binary mixtures; conditions: for solubility at 24 h: 25 °C, thermodynamic from solid
Description: as §1, §2

[3] = Solubility in NMP-water binary mixtures; conditions: for solubility at 24 h: thermodynamic from solid
Description: as §1, §2

[4] = neat γ-nonanoic lactone, 298.1 K

O=C1Nc2ccc([N+](=O)[O-])cc2C1=NNC(=O)c1cccc([N+](=O)[O-])c1 [derivative 3, 3-nitro-N′-[5-nitro-2-oxo-1,2-dihydro-3H-indol-3-ylidene]benzohydrazide]
solubility at 24 h ([1]; neat DMF, 298.1 K): 1690 µg/mL (≈ 4.76 mM)
solubility at 24 h ([1]; neat DMP, 298.1 K): 80 µg/mL (≈ 0.225 mM)
solubility at 24 h ([1]; neat DMSO, 298.1 K): 3090 µg/mL (≈ 8.7 mM)
solubility at 24 h ([1]; neat NMP, 298.1 K): 8990 µg/mL (≈ 25.3 mM)
solubility at 24 h ([1]; neat acetone, 298.1 K): 210 µg/mL (≈ 0.591 mM)
solubility at 24 h ([1]; neat acetonitrile, 298.1 K): 170 µg/mL (≈ 0.479 mM)
solubility at 24 h ([1]; neat cyrene, 298.1 K): 290 µg/mL (≈ 0.816 mM)
solubility at 24 h ([1]; neat diglyme, 298.1 K): 520 µg/mL (≈ 1.46 mM)
solubility at 24 h ([1]; neat dioxane, 298.1 K): 310 µg/mL (≈ 0.873 mM)
solubility at 24 h ([1]; neat ethyl lactate, 298.1 K): 180 µg/mL (≈ 0.507 mM)
solubility at 24 h ([1]; neat methanol, 298.1 K): 60 µg/mL (≈ 0.169 mM)
solubility at 24 h ([1]; neat tetraglyme, 298.1 K): 430 µg/mL (≈ 1.21 mM)
solubility at 24 h ([1]; neat triglyme, 298.1 K): 230 µg/mL (≈ 0.647 mM)
solubility at 24 h ([1]; neat γ-heptalactone, 298.1 K): 440 µg/mL (≈ 1.24 mM)
solubility at 24 h [1, 4]: 280 µg/mL (≈ 0.788 mM)
solubility at 24 h ([1]; neat 1-butanol): 20 µg/mL (≈ 0.0563 mM)
solubility at 24 h ([1]; neat 1-propanol): 20 µg/mL (≈ 0.0563 mM)
solubility at 24 h ([1]; neat 4FM): 940 µg/mL (≈ 2.65 mM)
solubility x ([1]; neat 4FM, 298.1 K): 2.65 (0.11) × 10^−4 mole fraction
solubility x ([1]; neat DMF, 298.1 K): 3.69 × 10^−4 mole fraction and 3.69 (0.05) × 10^−4 mole fraction
solubility x ([1]; neat DMP, 298.1 K): 0.27 (0.01) × 10^−4 mole fraction
solubility x ([1]; neat DMSO, 298.1 K): 6.12 × 10^−4 mole fraction and 6.12 (0.10) × 10^−4 mole fraction
solubility x ([1]; neat NMP, 298.1 K): 2.44 × 10^−3 mole fraction and 2.44 (0.07) × 10^−3 mole fraction
solubility x ([1]; neat acetone, 298.1 K): 0.43 (0.01) × 10^−4 mole fraction
solubility x ([1]; neat cyrene, 298.1 K): 0.83 (0.01) × 10^−4 mole fraction
solubility x ([1]; neat diglyme, 298.1 K): 2.08 (0.07) × 10^−4 mole fraction
solubility x ([1]; neat dioxane, 298.1 K): 0.74 (0.01) × 10^−4 mole fraction
solubility at 24 h ([1]; neat ethanol): 30 µg/mL (≈ 0.0844 mM)
solubility x ([1]; neat ethyl lactate, 298.1 K): 0.57 (0.01) × 10^−4 mole fraction
solubility x ([1]; neat tetraglyme, 298.1 K): 2.67 (0.09) × 10^−4 mole fraction
solubility x ([1]; neat triglyme, 298.1 K): 1.17 (0.05) × 10^−4 mole fraction
solubility x ([1]; neat γ-heptalactone, 298.1 K): 1.59 (0.04) × 10^−4 mole fraction
solubility x [1, 4]: 1.26 (0.05) × 10^−4 mole fraction
solubility at 24 h ([1]; neat ε-caprolactone): 340 µg/mL (≈ 0.957 mM)
solubility x ([1]; neat ε-caprolactone, 298.1 K): 1.02 (0.02) × 10^−4 mole fraction
solubility at 24 h ([2]; DMSO-water binary mixture, aqueous with cosolvent or surfactant or cyclodextrin, x*DMSO 0.1, 298.1 K): 860 µg/mL (≈ 2.42 mM)
solubility at 24 h ([2]; DMSO-water binary mixture, aqueous with cosolvent or surfactant or cyclodextrin, x*DMSO 0.2, 298.1 K): 1580 µg/mL (≈ 4.45 mM)
solubility at 24 h ([2]; DMSO-water binary mixture, aqueous with cosolvent or surfactant or cyclodextrin, x*DMSO 0.3, 298.1 K): 2480 µg/mL (≈ 6.98 mM)
solubility at 24 h ([2]; DMSO-water binary mixture, aqueous with cosolvent or surfactant or cyclodextrin, x*DMSO 0.4, 298.1 K): 3300 µg/mL (≈ 9.29 mM)
solubility at 24 h ([2]; DMSO-water binary mixture, aqueous with cosolvent or surfactant or cyclodextrin, x*DMSO 0.5, 298.1 K): 3750 µg/mL (≈ 10.6 mM)
solubility at 24 h ([2]; DMSO-water binary mixture, aqueous with cosolvent or surfactant or cyclodextrin, x*DMSO 0.6, 298.1 K): 3950 µg/mL (≈ 11.1 mM)
solubility at 24 h ([2]; DMSO-water binary mixture, aqueous with cosolvent or surfactant or cyclodextrin, x*DMSO 0.7, 298.1 K): 4010 µg/mL (≈ 11.3 mM)
solubility at 24 h ([2]; DMSO-water binary mixture, aqueous with cosolvent or surfactant or cyclodextrin, x*DMSO 0.8, 298.1 K): 3850 µg/mL (≈ 10.8 mM)
solubility at 24 h ([2]; DMSO-water binary mixture, aqueous with cosolvent or surfactant or cyclodextrin, x*DMSO 0.9, 298.1 K): 3540 µg/mL (≈ 9.96 mM)
solubility at 24 h ([2]; DMSO-water series, organic solvent or mixture, x*DMSO 1.0, 298.1 K): 3090 µg/mL (≈ 8.7 mM)
solubility x ([2]; x*DMSO 0.2, 298.1 K): 1.21 (0.01) × 10^−4 mole fraction
solubility x ([2]; x*DMSO 0.3, 298.1 K): 2.29 (0.01) × 10^−4 mole fraction
solubility x ([2]; x*DMSO 0.4, 298.1 K): 3.57 (0.03) × 10^−4 mole fraction
solubility x ([2]; x*DMSO 0.5, 298.1 K): 4.59 (0.04) × 10^−4 mole fraction
solubility x ([2]; x*DMSO 0.6, 298.1 K): 5.45 (0.03) × 10^−4 mole fraction
solubility x ([2]; x*DMSO 0.7, 298.1 K): 6.09 (0.03) × 10^−4 mole fraction
solubility x ([2]; x*DMSO 0.8, 298.1 K): 6.47 (0.04) × 10^−4 mole fraction
solubility x ([2]; x*DMSO 0.9, 298.1 K): 6.51 (0.04) × 10^−4 mole fraction
solubility x ([2]; x*DMSO 1.0, 298.1 K): 6.12 (0.07) × 10^−4 mole fraction
solubility at 24 h ([3]; NMP-water binary mixture, x*NMP 0.1, 25 °C, aqueous with cosolvent or surfactant or cyclodextrin, x*NMP 0.1, 298.1 K): 1580 µg/mL (≈ 4.45 mM)
solubility at 24 h ([3]; NMP-water binary mixture, x*NMP 0.2, 25 °C, aqueous with cosolvent or surfactant or cyclodextrin, x*NMP 0.2, 298.1 K): 3290 µg/mL (≈ 9.26 mM)
solubility at 24 h ([3]; NMP-water binary mixture, x*NMP 0.3, 25 °C, aqueous with cosolvent or surfactant or cyclodextrin, x*NMP 0.3, 298.1 K): 4940 µg/mL (≈ 13.9 mM)
solubility at 24 h ([3]; NMP-water binary mixture, x*NMP 0.4, 25 °C, aqueous with cosolvent or surfactant or cyclodextrin, x*NMP 0.4, 298.1 K): 6490 µg/mL (≈ 18.3 mM)
solubility at 24 h ([3]; NMP-water binary mixture, x*NMP 0.7, 25 °C, aqueous with cosolvent or surfactant or cyclodextrin, x*NMP 0.7, 298.1 K): 9560 µg/mL (≈ 26.9 mM)
solubility at 24 h ([3]; NMP-water binary mixture, x*NMP 0.8, 25 °C, aqueous with cosolvent or surfactant or cyclodextrin, x*NMP 0.8, 298.1 K): 10200 µg/mL (≈ 28.7 mM)
solubility at 24 h ([3]; NMP-water binary mixture, x*NMP 0.9, 25 °C, aqueous with cosolvent or surfactant or cyclodextrin, x*NMP 0.9, 298.1 K): 9710 µg/mL (≈ 27.3 mM)
solubility at 24 h ([3]; NMP-water binary solvent, 25 °C, aqueous with cosolvent or surfactant or cyclodextrin, x*NMP 0.5, 298.1 K): 7720 µg/mL (≈ 21.7 mM)
solubility at 24 h ([3]; NMP-water binary solvent, 25 °C, aqueous with cosolvent or surfactant or cyclodextrin, x*NMP 0.6, 298.1 K): 8710 µg/mL (≈ 24.5 mM)
solubility at 24 h ([3]; NMP-water series, x*NMP 1.0, 25 °C, organic solvent or mixture, x*NMP 1.0, 298.1 K): 8990 µg/mL (≈ 25.3 mM)
solubility x ([3]; x*NMP 0.1, 298.1 K): 1.12 (0.01) × 10^−4 mole fraction
solubility x ([3]; x*NMP 0.2, 298.1 K): 3.05 (0.03) × 10^−4 mole fraction
solubility x ([3]; x*NMP 0.3, 298.1 K): 5.74 (0.10) × 10^−4 mole fraction
solubility x ([3]; x*NMP 0.4, 298.1 K): 8.92 (0.10) × 10^−4 mole fraction
solubility x ([3]; x*NMP 0.5, 298.1 K): 1.24 (0.01) × 10^−3 mole fraction
solubility x ([3]; x*NMP 0.6, 298.1 K): 1.60 (0.02) × 10^−3 mole fraction
solubility x ([3]; x*NMP 0.7, 298.1 K): 1.99 (0.02) × 10^−3 mole fraction
solubility x ([3]; x*NMP 0.8, 298.1 K): 2.29 (0.02) × 10^−3 mole fraction
solubility x ([3]; x*NMP 0.9, 298.1 K): 2.40 (0.03) × 10^−3 mole fraction
solubility x ([3]; x*NMP 1.0, 298.1 K): 2.44 (0.06) × 10^−3 mole fraction
